From BindingDB's records for patent US9334290 (Bristol Myers Squibb, 2016) come the findings set out here.

The experiment concerns the target Tyrosine-protein kinase JAK2 (Homo sapiens, UniProt O60674). In words: Jak2 Tyrosine Kinase Assay. The conditions noted are these: pH 7.4; 25 °C.

Sequence of Tyrosine-protein kinase JAK2 (O60674 whole entry): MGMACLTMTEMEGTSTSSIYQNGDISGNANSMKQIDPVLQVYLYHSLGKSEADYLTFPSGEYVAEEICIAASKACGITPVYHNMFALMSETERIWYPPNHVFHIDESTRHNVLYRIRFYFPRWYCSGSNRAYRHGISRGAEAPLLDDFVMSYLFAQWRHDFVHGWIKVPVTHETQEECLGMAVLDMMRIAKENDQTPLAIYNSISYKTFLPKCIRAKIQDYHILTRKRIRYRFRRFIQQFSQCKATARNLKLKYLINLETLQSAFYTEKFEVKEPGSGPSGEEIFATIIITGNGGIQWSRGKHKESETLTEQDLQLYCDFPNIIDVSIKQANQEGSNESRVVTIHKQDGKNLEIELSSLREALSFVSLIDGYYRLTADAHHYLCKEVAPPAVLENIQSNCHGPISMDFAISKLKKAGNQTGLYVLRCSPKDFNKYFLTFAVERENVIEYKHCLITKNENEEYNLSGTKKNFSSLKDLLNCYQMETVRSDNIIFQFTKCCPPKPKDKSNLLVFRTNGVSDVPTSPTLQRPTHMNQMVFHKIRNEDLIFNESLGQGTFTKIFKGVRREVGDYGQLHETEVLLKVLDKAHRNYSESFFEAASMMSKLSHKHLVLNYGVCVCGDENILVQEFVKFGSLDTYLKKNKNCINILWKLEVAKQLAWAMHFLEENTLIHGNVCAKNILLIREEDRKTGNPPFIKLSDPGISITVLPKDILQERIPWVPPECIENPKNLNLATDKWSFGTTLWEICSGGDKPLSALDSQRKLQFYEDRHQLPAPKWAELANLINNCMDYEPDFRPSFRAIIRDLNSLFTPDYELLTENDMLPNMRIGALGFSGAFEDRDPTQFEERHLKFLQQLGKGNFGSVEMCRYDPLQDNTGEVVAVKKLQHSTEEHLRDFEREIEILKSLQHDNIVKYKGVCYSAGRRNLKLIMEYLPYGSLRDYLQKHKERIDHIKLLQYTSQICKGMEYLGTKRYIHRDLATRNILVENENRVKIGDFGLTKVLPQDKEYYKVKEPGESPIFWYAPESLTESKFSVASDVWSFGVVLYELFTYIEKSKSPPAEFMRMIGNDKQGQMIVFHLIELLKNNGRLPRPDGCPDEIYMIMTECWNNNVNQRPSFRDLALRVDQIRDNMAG

As for `Cc1c(-c2c(F)cc(C(N)=O)c3[nH]c4cc(C(C)(C)O)ccc4c23)cccc1-n1c(=O)[nH]c2c(F)cccc2c1=O` [US9334290, 21], half-maximal inhibition (IC50) required 760 nM.
